Results reported in the Kinase Knowledgebase extract (Sharma et al. 2016).

How the values were obtained:
PIK3CA (human) = PIK3CA (human) (UniProt P42336); test: Enzyme Assay
PIK3CD (Human) = PIK3CD (Human) (UniProt O00329); test: Enzyme Assay
PIK3CD (Human), sequence (O00329 whole entry, looked up): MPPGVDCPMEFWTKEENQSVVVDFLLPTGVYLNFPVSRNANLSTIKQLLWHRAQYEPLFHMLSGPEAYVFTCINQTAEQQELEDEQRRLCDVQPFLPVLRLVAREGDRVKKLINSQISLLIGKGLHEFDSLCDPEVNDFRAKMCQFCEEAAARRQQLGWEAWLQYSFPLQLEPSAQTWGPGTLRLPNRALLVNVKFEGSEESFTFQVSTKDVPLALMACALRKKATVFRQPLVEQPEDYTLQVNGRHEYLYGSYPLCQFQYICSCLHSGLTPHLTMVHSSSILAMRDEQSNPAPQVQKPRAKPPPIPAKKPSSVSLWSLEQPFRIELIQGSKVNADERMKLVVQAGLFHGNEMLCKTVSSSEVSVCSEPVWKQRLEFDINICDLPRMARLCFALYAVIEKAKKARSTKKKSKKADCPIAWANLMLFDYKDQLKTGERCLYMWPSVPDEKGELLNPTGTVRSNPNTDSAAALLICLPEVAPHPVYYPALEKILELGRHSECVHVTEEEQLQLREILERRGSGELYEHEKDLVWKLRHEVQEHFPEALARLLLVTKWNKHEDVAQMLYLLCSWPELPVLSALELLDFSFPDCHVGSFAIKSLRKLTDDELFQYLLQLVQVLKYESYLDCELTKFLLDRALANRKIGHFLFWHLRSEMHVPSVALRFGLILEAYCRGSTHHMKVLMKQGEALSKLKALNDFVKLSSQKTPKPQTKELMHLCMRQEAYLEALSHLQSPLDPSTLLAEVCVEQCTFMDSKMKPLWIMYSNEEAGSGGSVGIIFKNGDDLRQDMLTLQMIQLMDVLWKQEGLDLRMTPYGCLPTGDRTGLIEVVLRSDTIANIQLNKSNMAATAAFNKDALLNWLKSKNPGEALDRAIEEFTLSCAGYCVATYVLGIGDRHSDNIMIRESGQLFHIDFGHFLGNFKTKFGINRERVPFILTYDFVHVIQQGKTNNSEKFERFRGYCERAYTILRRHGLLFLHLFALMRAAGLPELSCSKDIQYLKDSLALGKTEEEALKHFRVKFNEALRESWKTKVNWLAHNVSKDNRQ

PIK3CA (human), sequence (P42336 whole entry, looked up): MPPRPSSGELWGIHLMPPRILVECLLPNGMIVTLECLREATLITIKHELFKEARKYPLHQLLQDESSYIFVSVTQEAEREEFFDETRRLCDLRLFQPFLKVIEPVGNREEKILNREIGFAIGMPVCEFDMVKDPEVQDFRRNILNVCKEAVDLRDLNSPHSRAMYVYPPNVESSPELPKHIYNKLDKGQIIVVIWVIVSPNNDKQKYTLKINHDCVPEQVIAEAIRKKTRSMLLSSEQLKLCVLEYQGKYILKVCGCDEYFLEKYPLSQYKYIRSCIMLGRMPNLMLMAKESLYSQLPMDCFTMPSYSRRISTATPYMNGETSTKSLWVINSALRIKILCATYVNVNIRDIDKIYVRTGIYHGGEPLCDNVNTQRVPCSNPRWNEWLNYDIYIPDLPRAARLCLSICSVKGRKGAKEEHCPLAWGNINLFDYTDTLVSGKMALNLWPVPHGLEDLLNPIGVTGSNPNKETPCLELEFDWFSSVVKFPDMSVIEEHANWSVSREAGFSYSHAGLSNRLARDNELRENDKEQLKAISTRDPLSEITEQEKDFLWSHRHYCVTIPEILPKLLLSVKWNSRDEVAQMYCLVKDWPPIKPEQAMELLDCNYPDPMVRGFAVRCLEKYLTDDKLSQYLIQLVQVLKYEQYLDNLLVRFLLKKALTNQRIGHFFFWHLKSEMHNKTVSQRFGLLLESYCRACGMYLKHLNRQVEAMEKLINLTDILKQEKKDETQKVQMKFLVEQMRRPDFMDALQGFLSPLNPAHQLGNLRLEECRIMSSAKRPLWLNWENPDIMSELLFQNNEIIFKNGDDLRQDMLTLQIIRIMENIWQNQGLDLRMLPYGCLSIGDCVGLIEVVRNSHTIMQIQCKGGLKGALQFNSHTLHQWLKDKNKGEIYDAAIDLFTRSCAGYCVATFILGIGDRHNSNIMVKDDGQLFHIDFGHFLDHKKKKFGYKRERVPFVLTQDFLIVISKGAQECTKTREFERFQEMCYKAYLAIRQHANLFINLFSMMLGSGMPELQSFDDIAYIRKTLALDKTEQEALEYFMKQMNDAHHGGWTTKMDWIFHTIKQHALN

Row | SMILES | IC50 (PIK3CA (human)) [nM] | IC50 (PIK3CD (Human)) [nM]
1 | Cc1cccc2cc([C@H](C)Nc3c(C#N)cnc4ccccc34)n(-c3ccccc3)c(=O)c12 | > 10000 | 
2 | CC(=O)Nc1nc2ccc(-c3nn(Cc4cc5cccc(C)c5c(=O)n4-c4ccccc4C)c4ncnc(N)c34)cc2[nH]1 |  | < 100
3 | CCC(Nc1ncnc2[nH]cnc12)c1cc2cccc(C)c2c(=O)n1-c1ccccc1 (stereo not drawn) | > 10000 | < 100
4 | Cc1cccc2cc(Cn3nc(-c4cc(O)cc(F)c4)c4c(N)ncnc43)n(C3CC3)c(=O)c12 | 100 to 1000 | 
5 | Cc1cccc2cc([C@H](C)Nc3nc(F)nc4[nH]cnc34)n(-c3ccccc3)c(=O)c12 |  | < 100
6 | Cc1cccnc1-n1c(Cn2nc(-c3cccc(O)c3)c3c(N)ncnc32)cc2ccccc2c1=O |  | 100 to 1000
7 | Cc1ccccc1-n1c(Cn2nc(C(F)F)c3c(N)ncnc32)cc2cccc(C)c2c1=O |  | < 100
8 | Cc1ccccc1-n1c(Cn2nc(-c3cnc4[nH]ccc4c3)c3c(N)ncnc32)cc2cccc(C)c2c1=O | > 10000 | 
9 | Cc1ccccc1-n1c(Cn2nc(-c3ccc(F)c(O)c3)c3c(N)ncnc32)cc2cccc(C)c2c1=O | > 10000 | 
10 | Cc1cccnc1-n1c(Cn2nc(-c3cc(O)cc(F)c3)c3c(N)ncnc32)cc2cccc(C)c2c1=O | > 10000 | 
11 | CC(=O)c1nn(Cc2cc3cccc(C)c3c(=O)n2-c2ccccc2)c2ncnc(N)c12 | > 10000 | 100 to 1000
12 | Cc1ccccc1-n1c(Cn2nc(-c3ccc(O)c(Cl)c3)c3c(N)ncnc32)cc2cccc(C)c2c1=O | > 10000 | 
13 | Cc1cccc2cc(Cn3nc(-c4cccc(O)c4)c4c(N)ncnc43)n(C3CCC3)c(=O)c12 | > 10000 | 
14 | Cc1cccc2cc([C@@H](C)Nc3ncnc4[nH]cnc34)n(C3CC3)c(=O)c12 |  | > 10000
15 | Cc1cccnc1-n1c(Cn2nc(-c3ccc(Cl)c(O)c3)c3c(N)ncnc32)cc2cccc(C)c2c1=O | > 10000 | 
16 | Cc1nc2c(N[C@@H](C)c3cc4cccc(C)c4c(=O)n3-c3ccccc3)ncnc2[nH]1 | > 10000 | 
17 | Cc1ccccc1-n1c(Cn2nc(C#C[C@H](C)O)c3c(N)ncnc32)cc2cccc(C)c2c1=O | > 10000 | 100 to 1000
18 | Cc1cccc2cc(C(C)Nc3ncnc4[nH]cnc34)n(-c3ccccc3F)c(=O)c12 (stereo not drawn) | > 10000 | 
19 | CCC(Nc1ncnc2[nH]cnc12)c1cc2cccc(C)c2c(=O)n1C(C)C (stereo not drawn) | > 10000 | < 100
20 | Cc1ccccc1-n1c(Cn2nc(C#C[C@@H](C)O)c3c(N)ncnc32)cc2ccccc2c1=O | > 10000 | 100 to 1000

Row | SMILES | IC50 (PIK3CA (human)) [nM] | IC50 (PIK3CD (Human)) [nM]
21 | Cc1cccc2cc(Cn3nc(C#C[C@@H](C)O)c4c(N)ncnc43)n(C3CCCC3)c(=O)c12 | > 10000 | 
22 | Cc1ccccc1-n1c(Cn2nc(Br)c3c(N)ncnc32)cc2cccc(C)c2c1=O | > 10000 | 
23 | Cc1ccccc1-n1c(Cn2nc(-c3ccc4nc(N)sc4c3)c3c(N)ncnc32)cc2cccc(C)c2c1=O | 100 to 1000 | 
24 | Cc1cccc2cc([C@H](C)Nc3nc(Cl)nc4[nH]cnc34)n(-c3ccccc3)c(=O)c12 |  | < 100
25 | Cc1cccc2cc([C@H](C)Nc3ncnc4[nH]nc(Cl)c34)n(-c3ccccc3)c(=O)c12 | > 10000 | < 100
26 | Cc1cccc2cc([C@H](C)Nc3nc(N)ncc3Cl)n(-c3ccccc3)c(=O)c12 | > 10000 | < 100
27 | Cc1cccc2cc(Cn3nc(C#C[C@@H](C)O)c4c(N)ncnc43)n(-c3ccccc3C(C)C)c(=O)c12 | > 10000 | 
28 | CC(=O)Nc1nc2cc(-c3nn(Cc4cc5cccc(C)c5c(=O)n4-c4ccccc4C)c4ncnc(N)c34)ccc2s1 | > 10000 | 100 to 1000
29 | Cc1cccc2cc(C(C)Nc3ncnc4[nH]cnc34)n(C3CCC3)c(=O)c12 (stereo not drawn) | > 10000 | < 100
30 | COc1ccc(-c2nn(Cc3cc4cccc(C)c4c(=O)n3-c3ccccc3C)c3ncnc(N)c23)cc1 | > 10000 | 100 to 1000
31 | Cc1ccccc1-n1c(Cn2nc(-c3ccc4cc[nH]c4c3)c3c(N)ncnc32)cc2cccc(C)c2c1=O | > 10000 | 
32 | Cc1ccccc1-n1c(Cn2nc(I)c3c(N)ncnc32)cc2ccccc2c1=O | > 10000 | 100 to 1000
33 | Cc1cccc2cc(Cn3nc(-c4cn[nH]c4)c4c(N)ncnc43)n(C3CCN(C)CC3)c(=O)c12 |  | 100 to 1000
34 | Cc1cccc2cc([C@H](C)Nc3ncnc4[nH]cnc34)n(C(C)C)c(=O)c12 |  | < 100
35 | CCC(Nc1ncnc2[nH]cnc12)c1cc2cccc(C)c2c(=O)n1C1CCN(C)CC1 (stereo not drawn) | > 10000 | 100 to 1000
36 | Cc1cccc2cc([C@H](C)Nc3nc(N)ncc3F)n(C3CC3)c(=O)c12 | > 10000 | 
37 | Cc1cccc2cc(C(C)Nc3ncnc4[nH]cnc34)n(CCN3CCCC3)c(=O)c12 (stereo not drawn) |  | < 100
38 | Cc1cccc2cc(Cn3nc(-c4cccc(O)c4)c4c(N)ncnc43)n(C3CCCCC3)c(=O)c12 | > 10000 | 
39 | Cc1cccnc1-n1c(Cn2nc(Cl)c3c(N)ncnc32)cc2cccc(C)c2c1=O | > 10000 | 100 to 1000
40 | Cc1cccc2cc(Cn3nc(C#C[C@@H](C)O)c4c(N)ncnc43)n(C(C)C)c(=O)c12 | > 10000 | 
